ChEMBL document CHEMBL5380848, “Novel Benzo Five-Membered Heterocycle Derivatives as P-Glycoprotein Inhibitors: Design, Synthesis, Molecular Docking, and Anti-Multidrug Resistance Activity” (J Med Chem, 2023)

Assays:
[1] = molecular target: ATP-dependent translocase ABCB1 (Homo sapiens, UniProt P08183); experiment: Inhibition of P-gp-mediated multidrug resistance in doxorubicin-resistant human MCF7/ADR cells assessed as fold reversal of resistance by measuring doxorubicin IC50 incubated for 48 hrs by CCK-8 assay relative to doxorubicin IC50 in absence of compound; format: cell-based; details: nci-adr-res
Chain of ATP-dependent translocase ABCB1 (P08183 whole entry): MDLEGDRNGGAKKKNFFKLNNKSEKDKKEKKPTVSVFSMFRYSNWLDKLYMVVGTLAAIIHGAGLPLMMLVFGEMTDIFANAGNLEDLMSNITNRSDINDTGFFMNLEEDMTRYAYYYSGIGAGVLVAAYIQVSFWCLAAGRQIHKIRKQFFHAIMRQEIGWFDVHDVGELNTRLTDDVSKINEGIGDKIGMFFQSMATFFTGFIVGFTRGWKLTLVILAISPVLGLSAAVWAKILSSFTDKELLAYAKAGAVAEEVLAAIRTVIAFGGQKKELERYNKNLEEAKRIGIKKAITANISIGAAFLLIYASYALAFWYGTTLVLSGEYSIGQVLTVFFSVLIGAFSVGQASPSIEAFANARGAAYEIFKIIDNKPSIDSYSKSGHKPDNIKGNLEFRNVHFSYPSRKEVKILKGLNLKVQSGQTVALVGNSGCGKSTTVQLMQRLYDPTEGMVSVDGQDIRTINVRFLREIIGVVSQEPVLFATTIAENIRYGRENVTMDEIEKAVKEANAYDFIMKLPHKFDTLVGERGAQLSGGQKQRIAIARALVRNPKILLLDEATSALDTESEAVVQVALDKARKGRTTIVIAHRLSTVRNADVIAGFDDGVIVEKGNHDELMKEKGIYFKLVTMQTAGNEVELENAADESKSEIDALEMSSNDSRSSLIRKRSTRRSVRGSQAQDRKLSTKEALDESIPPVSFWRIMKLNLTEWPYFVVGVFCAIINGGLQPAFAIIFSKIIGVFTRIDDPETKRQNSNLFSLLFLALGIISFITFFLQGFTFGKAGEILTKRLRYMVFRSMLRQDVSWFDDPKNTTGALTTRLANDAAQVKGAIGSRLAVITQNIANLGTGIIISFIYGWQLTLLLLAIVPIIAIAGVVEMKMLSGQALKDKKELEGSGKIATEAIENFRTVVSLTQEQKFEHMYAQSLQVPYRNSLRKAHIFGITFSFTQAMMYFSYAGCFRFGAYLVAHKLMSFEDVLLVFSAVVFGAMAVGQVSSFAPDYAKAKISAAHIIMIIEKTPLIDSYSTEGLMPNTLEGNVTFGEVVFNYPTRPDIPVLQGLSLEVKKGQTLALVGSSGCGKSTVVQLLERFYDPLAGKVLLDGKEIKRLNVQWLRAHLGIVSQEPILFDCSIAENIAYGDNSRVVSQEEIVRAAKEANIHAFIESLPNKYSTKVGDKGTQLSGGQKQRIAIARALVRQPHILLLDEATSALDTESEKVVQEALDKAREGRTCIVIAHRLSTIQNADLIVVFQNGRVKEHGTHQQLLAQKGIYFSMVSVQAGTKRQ

MCF7 = experiment: Cytotoxicity against human MCF7 cells assessed as inhibition rate at 5 uM measured after […] hrs by CCK-8 assay relative to control; format: functional
NCI/ADR-RES = experiment: Cytotoxicity against doxorubicin-resistant human MCF-7/ADR cells assessed as inhibition rate at 5 uM measured after […] hrs by CCK-8 assay relative to control; format: functional

Row | fold change (FC) [1] | Compound | inhibition at 5 µM (MCF7) | inhibition at 5 µM (NCI/ADR-RES)
1 | 15.1 | COc1cc2c(cc1OC)CN(C(=O)c1cc3cc(-c4ccccc4OC)ccc3[nH]1)CC2 |  | 
2 | 41.4 | COc1cc2c(cc1OC)CN(C(=O)c1cc3cc(-c4ccc(C)cc4)ccc3[nH]1)CC2 |  | 
3 | 16.5 | CCCOc1ccc(-c2ccc3[nH]c(C(=O)N4CCc5cc(OC)c(OC)cc5C4)cc3c2)cc1 |  | 
4 | 108.7 | COc1ccc(OC)c(-c2ccc3[nH]c(C(=O)N4CCc5cc(OC)c(OC)cc5C4)cc3c2)c1 |  | 
5 |  | COc1cc2c(cc1OC)CN(C(=O)c1cc3cc(-c4ccc(NC(=O)c5ccc(OC(F)(F)F)cc5)cc4)ccc3[nH]1)CC2 | 46.7% | 53.8%
6 | 431.5 | COc1cc2c(cc1OC)CN(C(=O)c1cc3cc(-c4ccc(NC(=O)c5cccc(Cl)c5)cc4)ccc3[nH]1)CC2 | 12% | 17.7%
7 | 51.3 | COc1cc2c(cc1OC)CN(C(=O)c1cc3cc(-c4ccc(F)cc4)ccc3[nH]1)CC2 |  | 
8 | 55.8 | COc1cc2c(cc1OC)CN(C(=O)c1cc3cc(-c4ccc([N+](=O)[O-])cc4)ccc3[nH]1)CC2 |  | 
9 | 36.6 | COc1cc2c(cc1OC)CN(C(=O)c1cc3cc(-c4ccc(NC(=O)c5ccc(Cl)cc5)cc4)ccc3n1Cc1ccc(C)cc1)CC2 | 3.7% | 2.5%
10 | 204.4 | COc1cccc(-c2ccc3[nH]c(C(=O)N4CCc5cc(OC)c(OC)cc5C4)cc3c2)c1 |  | 
11 | 39.1 | COc1cc2c(cc1OC)CN(C(=O)c1cc3cc(-c4ccc(NC(=O)c5ccc(C#N)cc5)cc4)ccc3[nH]1)CC2 | 10.7% | 19.5%
12 | 325.9 | COc1cccc(C(=O)Nc2ccc(-c3ccc4[nH]c(C(=O)N5CCc6cc(OC)c(OC)cc6C5)cc4c3)cc2)c1 | 11.4% | 18.9%
13 | 100.4 | COc1cc2c(cc1OC)CN(C(=O)c1cc3cc(-c4ccc(Cl)cc4)ccc3[nH]1)CC2 |  | 
14 | 83 | COc1cc2c(cc1OC)CN(C(=O)c1cc3cc(-c4ccc(NC(=O)c5ccc(I)cc5)cc4)ccc3[nH]1)CC2 | 15.4% | 12.9%
15 | 137.6 | COc1cc2c(cc1OC)CN(C(=O)c1cc3cc(-c4cc(OC)c(OC)c(OC)c4)ccc3[nH]1)CC2 |  | 
16 | 16.1 | COc1cc2c(cc1OC)CN(C(=O)c1cc3cc(-c4ccc(NC(=O)c5ccccc5OC)cc4)ccc3[nH]1)CC2 | 20.7% | -2.9%
17 |  | COc1ccc(CCN(C)CCCC(C#N)(c2ccc(OC)c(OC)c2)C(C)C)cc1OC (centres undefined) | 6.9% | 12.2%
18 | 25.9 | COc1cc2c(cc1OC)CN(C(=O)c1cc3cc(-c4ccc(NC(=O)c5ccc(Cl)cc5)cc4)ccc3n1Cc1ccc(Cl)cc1)CC2 | 2.6% | -3.3%
19 | 283.2 | COc1cc2c(cc1OC)CN(CCc1ccc(NC(=O)c3cc(OC)c(OC)cc3NC(=O)c3cnc4ccccc4c3)cc1)CC2 | 42.8% | 48.9%
20 | 33.4 | COc1cc2c(cc1OC)CN(C(=O)c1cc3cc(-c4cccc(Cl)c4)ccc3[nH]1)CC2 |  | 

Row | fold change (FC) [1] | Compound | inhibition at 5 µM (MCF7) | inhibition at 5 µM (NCI/ADR-RES)
21 | 55.4 | COc1cc2c(cc1OC)CN(C(=O)c1cc3cc(-c4ccc(NC(=O)c5ccc(Cl)cc5)cc4)ccc3n1Cc1ccccc1)CC2 | 10.1% | 6.9%
22 | 26.5 | COc1cccc(Cn2c(C(=O)N3CCc4cc(OC)c(OC)cc4C3)cc3cc(-c4ccc(NC(=O)c5ccc(Cl)cc5)cc4)ccc32)c1 | 5% | 5%
23 | 99.1 | COc1cc2c(cc1OC)CN(C(=O)c1cc3cc(-c4ccc(OC(F)(F)F)cc4)ccc3[nH]1)CC2 |  | 
24 | 33.4 | COc1cc2c(cc1OC)CN(C(=O)c1cc3cc(-c4ccc5c(c4)OCO5)ccc3[nH]1)CC2 |  | 
25 | 78 | COc1ccc(C(=O)Nc2ccc(-c3ccc4[nH]c(C(=O)N5CCc6cc(OC)c(OC)cc6C5)cc4c3)cc2)cc1 | 19.6% | 23.9%
26 | 88.3 | COc1cc2c(cc1OC)CN(C(=O)c1cc3cc(-c4cccc(OC)c4OC)ccc3[nH]1)CC2 |  | 
27 | 27.5 | COc1cc2c(cc1OC)CN(C(=O)c1cc3cc(-c4ccc(OC(C)(C)C)cc4)ccc3[nH]1)CC2 |  | 
28 | 118.6 | COc1cc2c(cc1OC)CN(C(=O)c1cc3cc(-c4ccc(NC(=O)c5ccc(Cl)cc5)cc4)ccc3n1Cc1cccc(Br)c1)CC2 | 7.9% | 21.6%
29 | 37.6 | COc1cc2c(cc1OC)CN(C(=O)c1cc3cc(-c4ccc(NC(=O)c5ccc(Cl)cc5)cc4)ccc3n1Cc1cccc(F)c1)CC2 | 1.7% | -2.6%
30 | 23 | COc1cc2c(cc1OC)CN(C(=O)c1cc3cc(-c4ccc(NC(=O)c5ccc(Oc6ccccc6)cc5)cc4)ccc3[nH]1)CC2 | 19% | 15.5%
31 | 41.9 | COc1cc2c(cc1OC)CN(C(=O)c1cc3cc(-c4ccccc4[N+](=O)[O-])ccc3[nH]1)CC2 |  | 
32 | 105.6 | COc1ccc(Cn2c(C(=O)N3CCc4cc(OC)c(OC)cc4C3)cc3cc(-c4ccc(NC(=O)c5ccc(Cl)cc5)cc4)ccc32)cc1 | 3.2% | 18.1%
33 | 146.3 | COc1cc2c(cc1OC)CN(C(=O)c1cc3cc(-c4ccc(NC(=O)c5ccccc5)cc4)ccc3[nH]1)CC2 | 15.5% | 11%
34 | 3628.7 | COc1cc2c(cc1OC)CN(C(=O)c1cc3cc(-c4ccc(NC(=O)c5ccc(F)cc5)cc4)ccc3[nH]1)CC2 | 52.8% | 50.4%
35 | 96.6 | COc1cc2c(cc1OC)CN(C(=O)c1cc3cc(-c4ccc(NC(=O)c5ccc(OC(C)(C)C)cc5)cc4)ccc3[nH]1)CC2 | 15.9% | 8.8%
36 | 36.1 | COc1cc2c(cc1OC)CN(C(=O)c1cc3cc(-c4ccc(NC(=O)c5ccc(Cl)cc5)cc4)ccc3n1Cc1ccccc1Br)CC2 | 18.2% | 17.1%
37 | 469.8 | COc1cc2c(cc1OC)CN(C(=O)c1cc3cc(-c4ccc(NC(=O)c5ccccc5F)cc4)ccc3[nH]1)CC2 | 13.9% | 18.7%
38 | 201.7 | COc1cc2c(cc1OC)CN(C(=O)c1cc3cc(-c4ccc(NC(=O)c5ccc(Br)cc5)cc4)ccc3[nH]1)CC2 | 10.2% | 19.1%
39 | 92.1 | COc1cc2c(cc1OC)CN(C(=O)c1cc3cc(-c4ccc(NC(=O)c5ccc(Cl)cc5)cc4)ccc3n1Cc1ccccc1F)CC2 | 5.3% | 14.3%
40 | 24 | COc1cc2c(cc1OC)CN(C(=O)c1cc3cc(-c4ccc(OC(C)C)cc4)ccc3[nH]1)CC2 |  | 

Row | fold change (FC) [1] | Compound | inhibition at 5 µM (MCF7) | inhibition at 5 µM (NCI/ADR-RES)
41 | 58.1 | COc1cc2c(cc1OC)CN(C(=O)c1cc3cc(-c4cccc(C)c4)ccc3[nH]1)CC2 |  | 
42 | 30 | COc1cc2c(cc1OC)CN(C(=O)c1cc3cc(-c4ccc(Oc5ccccc5)cc4)ccc3[nH]1)CC2 |  | 
43 | 56.2 | COc1ccc(-c2ccc3[nH]c(C(=O)N4CCc5cc(OC)c(OC)cc5C4)cc3c2)cc1OC |  | 
44 | 112.7 | COc1ccc(-c2ccc3[nH]c(C(=O)N4CCc5cc(OC)c(OC)cc5C4)cc3c2)c(OC)c1 |  | 
45 | 10 | COc1cc2c(cc1OC)CN(C(=O)c1cc3cc(-c4ccccc4)ccc3[nH]1)CC2 |  | 
46 |  | C/C=C/C[C@@H](C)[C@@H](O)[C@H]1C(=O)N[C@@H](CC)C(=O)N(C)CC(=O)N(C)[C@@H](CC(C)C)C(=O)N[C@@H](C(C)C)C(=O)N(C)[C@@H](CC(C)C)C(=O)N[C@@H](C)C(=O)N[C@H](C)C(=O)N(C)[C@@H](CC(C)C)C(=O)N(C)[C@@H](CC(C)C)C(=O)N(C)[C@@H](C(C)C)C(=O)N1C [CYCLOSPORINE] |  | 24.5%
47 | 25.9 | COc1cc2c(cc1OC)CN(C(=O)c1cc3cc(-c4ccc(NC(=O)c5ccc(Cl)cc5)cc4)ccc3n1Cc1ccc([N+](=O)[O-])cc1)CC2 | 19.1% | 12.8%
48 | 19.9 | COc1cc2c(cc1OC)CN(C(=O)c1cc3cc(-c4cccc(F)c4)ccc3[nH]1)CC2 |  | 
49 | 27.5 | COc1cc2c(cc1OC)CN(C(=O)c1cc3cc(-c4ccc(NC(=O)c5ccc(Cl)cc5)cc4)ccc3n1Cc1cccc(Cl)c1)CC2 | 1.3% | 0.1%
50 | 34.9 | COc1cc2c(cc1OC)CN(C(=O)c1cc3cc(-c4ccc(N)cc4)ccc3[nH]1)CC2 |  | 
51 | 86.4 | COc1cc(OC)cc(-c2ccc3[nH]c(C(=O)N4CCc5cc(OC)c(OC)cc5C4)cc3c2)c1 |  | 
52 | 18.3 | CCCCOc1ccc(-c2ccc3[nH]c(C(=O)N4CCc5cc(OC)c(OC)cc5C4)cc3c2)cc1 |  | 
53 | 46.4 | COc1ccc(-c2ccc3[nH]c(C(=O)N4CCc5cc(OC)c(OC)cc5C4)cc3c2)cc1 |  | 
54 | 1 | COc1cccc2c1C(=O)c1c(O)c3c(c(O)c1C2=O)C[C@@](O)(C(=O)CO)C[C@@H]3O[C@H]1C[C@H](N)[C@H](O)[C@H](C)O1 [DOXORUBICIN] |  | 
55 | 26.3 | COc1cc2c(cc1OC)CN(C(=O)c1cc3cc(-c4ccccc4C)ccc3[nH]1)CC2 |  | 
56 | 52.8 | COc1cc2c(cc1OC)CN(C(=O)c1cc3cc(-c4ccccc4Cl)ccc3[nH]1)CC2 |  | 
57 | 33.6 | CCOc1ccc(-c2ccc3[nH]c(C(=O)N4CCc5cc(OC)c(OC)cc5C4)cc3c2)cc1 |  | 
58 | 17 | COc1cc2c(cc1OC)CN(C(=O)c1cc3cc(-c4ccccc4F)ccc3[nH]1)CC2 |  | 
59 | 76.3 | COc1cc2c(cc1OC)CN(C(=O)c1cc3cc(-c4cccc([N+](=O)[O-])c4)ccc3[nH]1)CC2 |  | 
